How the values were obtained:
HSV-1 protease = target: T1, HSV-1 protease (Human herpesvirus 1, UniProt P10210); assay: Enzymatic assay for HSV-1 protease (assembly) inhibitor, fluorescence polarization; format: biochemical; settings: read-out: HSV-1 Enzyme inhibition IC50
T1 construct: 6xHis (N); made in house; host or cells: baculovirus expression system
Procedure, shortened: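 His6-tagged HSV-1 UL26 protease, baculovirus-expressed, preincubated 30 min at RT with compound in 1 M citrate/phosphate buffer pH 7.4 with 20% glycerol and 2 mM TCEP. A biotin-HTYLQA*SERFRIK-DTAF substrate was then cleaved for 60 min at RT, stopped with avidin, and read by fluorescence polarization versus no-inhibitor control.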

Vero cells = assay: Cytotoxicity, Vero cells, Alamar Blue; format: cell-based; settings: 25 μM, 20 hours
Procedure, shortened: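 Overnight-seeded Vero cells were exposed to 25 μM compound in 2% FBS-DMEM for 20 h at 37 °C, 5% CO2. Alamar Blue was then added for about 6 h. The absorbance ratio relative to compound-free control gave the living-cell ratio.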

HSV-1 = assay: Antiviral activity, HSV-1 in Vero cells, plaque method; format: cell-based; settings: Human alphaherpesvirus 1, 20 hours, 90% inhibition of plaque formation
Procedure, shortened: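 HSV-1 (50,000 pfu in 2% FBS-DMEM) was added to Vero cells and removed, then the compound was applied in 2% FBS-DMEM for 20 h at 37° C, 5% CO2. After a freeze-thaw, virus yield in the medium was titred by plaque assay. EC90 is the concentration giving 90% plaque reduction versus the compound-free control.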

T1 sequence (P10210 1-247): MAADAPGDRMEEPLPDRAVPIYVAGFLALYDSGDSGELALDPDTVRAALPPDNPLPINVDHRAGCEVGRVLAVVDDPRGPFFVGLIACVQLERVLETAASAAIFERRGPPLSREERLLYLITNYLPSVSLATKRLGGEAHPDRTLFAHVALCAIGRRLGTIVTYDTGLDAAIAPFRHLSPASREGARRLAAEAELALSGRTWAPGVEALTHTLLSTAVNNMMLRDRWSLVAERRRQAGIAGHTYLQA

| SMILES | IC50 (HSV-1 protease) [nM] | Cell viability (% of control) (Vero cells) [%] | EC90 (HSV-1) [µM] |
| --- | --- | --- | --- |
| Cc1c(NC(=O)c2cccc(Br)c2)ccc2nc(NC(C)(C)C(=O)N(C)CCc3ccccn3)oc(=O)c12 [Compound No.200, 3-Bromo-N-(5-methyl-2-{1-methyl-1-[methyl-(2-pyridin-2-yl-ethyl)-carbamoyl]-ethylamino}-4-oxo-4H-benzo[d][1,3]oxazin-6-yl)-benzamide] | 1600 | 21.5 | 3.2 |
| Cc1c(NC(=O)OC(C)(C)C)ccc2nc(N3C[C@H](OCc4ccccc4)C[C@H]3C(=O)NCc3cccnc3)oc(=O)c12 [Compound No.110, (2-{4R-Benzyloxy-2S-[(pyridin-3-ylmethyl)-carbamoyl]-pyrrolidin-1-yl}-5-methyl-4-oxo-4H-benzo[d][1,3]oxazin-6-yl)-carbamic acid tert-butyl ester] | 6300 | 71.9 | 7.4 |
| Cc1c(NC(=O)c2cccc([N+](=O)[O-])c2)ccc2nc(NC(C)(C)C(=O)N(C)CCc3ccccn3)oc(=O)c12 [Compound No.141, N-(5-Methyl-2-{1-methyl-1-[methyl-(2-pyridin-2-yl-ethyl)-carbamoyl]-ethylamino}-4-oxo-4H-benzo[d][1,3]oxazin-6-yl)-3-nitro-benzamide] | 8000 | 80.4 | > 12.5 |
| Cc1c(NC(=O)OC(C)(C)C)ccc2nc(N3C[C@H](OCc4ccccc4)C[C@H]3C(=O)N(C)Cc3ccccn3)oc(=O)c12 [Compound No.113, {2-[4R-Benzyloxy-2S-(methyl-pyridin-2-ylmethyl-carbamoyl)-pyrrolidin-1-yl]-5-methyl-4-oxo-4H-benzo[d][1,3]oxazin-6-yl}-carbamic acid tert-butyl ester] | 10100 | 71.7 | 8.8 |
| Cc1c(NC(=O)OC(C)(C)C)ccc2nc(N3Cc4ccccc4C[C@H]3C(=O)N(C)CCc3ccncc3)oc(=O)c12 [Compound No.101, (5-Methyl-2-{3S-[methyl-(2-pyridin-4-yl-ethyl)-carbamoyl]-3,4-dihydro-1H-isoquinolin-2-yl}-4-oxo-4H-benzo[d][1,3]oxazin-6-yl)-carbamic acid tert-butyl ester] | > 20000 | 45.5 | 8.4 |
| Cc1c(NC(=O)c2ccc(OC(F)(F)F)cc2)ccc2nc(NC(C)(C)C(=O)N(C)CCc3ccccn3)oc(=O)c12 [Compound No.173, N-(5-Methyl-2-{1-methyl-1-[methyl-(2-pyridin-2-yl-ethyl)-carbamoyl]-ethylamino}-4-oxo-4H-benzo[d][1,3]oxazin-6-yl)-4-trifluoromethoxy-benzamide] | 1400 | 26.1 | 7.1 |
| Cc1c(NC(=O)OC(C)(C)C)ccc2nc(N[C@@H](CC(C)C)C(=O)N(C)Cc3ccccn3)oc(=O)c12 [Compound No.62, {5-Methyl-2-[3-methyl-1S-(methyl-pyridin-2-ylmethyl-carbamoyl)-butylamino]-4-oxo-4H-benzo[d][1,3]oxazin-6-yl}-carbamic acid tert-butyl ester] | 2400 | 83.9 | 4.7 |
| Cc1c(NC(=O)OC(C)(C)C)ccc2nc(N[C@@H](CCc3ccccc3)C(=O)NCc3ccccn3)oc(=O)c12 [Compound No.39, (5-Methyl-4-oxo-2-{3-phenyl-1S-[(pyridin-2-ylmethyl)-carbamoyl]-propylamino}-4H-benzo[d][1,3]oxazin-6-yl)-carbamic acid tert-butyl ester] | 1500 | 90.1 | 12.4 |
| Cc1c(NC(=O)OC(C)(C)C)ccc2nc(N3CCCC[C@H]3C(=O)NCc3ccncc3)oc(=O)c12 [Compound No.104, (5-Methyl-4-oxo-2-{2S-[(pyridin-4-ylmethyl)-carbamoyl]-piperidin-1-yl}-4H-benzo[d][1,3]oxazin-6-yl)-carbamic acid tert-butyl ester] | 4300 | 63.0 | > 12.5 |
| Cc1c(NC(=O)OC(C)(C)C)ccc2nc(N[C@@H](CC(C)C)C(=O)N(C)CCc3ccccn3)oc(=O)c12 [Compound No.46, (5-Methyl-2-{3-methyl-1S-[methyl-(2-pyridin-2-yl-ethyl)-carbamoyl]-butylamino}-4-oxo-4H-benzo[d][1,3]oxazin-6-yl)-carbamic acid tert-butyl ester] | 1700 | 80.1 | 4.9 |
| Cc1c(NC(=O)OC(C)(C)C)ccc2nc(N(C)[C@@H](C)C(=O)N(C)CCc3ccncc3)oc(=O)c12 [Compound No.78, [5-Methyl-2-(methyl-{1S-[methyl-(2-pyridin-4-yl-ethyl)-carbamoyl]-ethyl}-amino)-4-oxo-4H-benzo[d][1,3]oxazin-6-yl]-carbamic acid tert-butyl ester] | 1400 | 90.7 | > 12.5 |
| Cc1ccccc1C(=O)Nc1ccc2nc(NC(C)(C)C(=O)N(C)CCc3ccccn3)oc(=O)c2c1C [Compound No.156, 2-Methyl-N-(5-methyl-2-{1-methyl-1-[methyl-(2-pyridin-2-yl-ethyl)-carbamoyl]-ethylamino}-4-oxo-4H-benzo[d][1,3]oxazin-6-yl)-benzamide] | 3800 | 78.0 | > 12.5 |
| Cc1c(NC(=O)c2ccccc2F)ccc2nc(NC(C)(C)C(=O)N(C)CCc3ccccn3)oc(=O)c12 [Compound No.147, 2-Fluoro-N-(5-methyl-2-{1-methyl-1-[methyl-(2-pyridin-2-yl-ethyl)-carbamoyl]-ethylamino}-4-oxo-4H-benzo[d][1,3]oxazin-6-yl)-benzamide] | 1600 | 70.2 | 10.2 |
| Cc1c(NC(=O)OC(C)(C)C)ccc2nc(N3CCCC[C@H]3C(=O)NCCc3ccccn3)oc(=O)c12 [Compound No.105, {5-Methyl-4-oxo-2-[2S-(2-pyridin-2-ylethylcarbamoyl)-piperidin-1-yl]-4H-benzo[d][1,3]oxazin-6-yl}-carbamic acid tert-butyl ester] | 2900 | 55.6 | > 12.5 |
| Cc1c(NC(=O)OC(C)(C)C)ccc2nc(N[C@H](C(=O)N(C)Cc3ccccn3)C(C)C)oc(=O)c12 [Compound No.61, {5-Methyl-2-[2-methyl-1S-(methyl-pyridin-2-ylmethyl-carbamoyl)-propylamino]-4-oxo-4H-benzo[d][1,3]oxazin-6-yl}-carbamic acid tert-butyl ester] | 3300 | 107.0 | 4.7 |
| Cc1c(NC(=O)OC(C)(C)C)ccc2nc(N3C[C@H](OCc4ccccc4)C[C@H]3C(=O)N(C)CCc3ccccn3)oc(=O)c12 [Compound No.114, (2-{4R-Benzyloxy-2S-[methyl-(2-pyridin-2-yl-ethyl)-carbamoyl]-pyrrolidin-1-yl}-5-methyl-4-oxo-4H-benzo[d][1,3]oxazin-6-yl)-carbamic acid tert-butyl ester] | > 10000 | 76.5 | 5.9 |
| Cc1c(NC(=O)OC(C)(C)C)ccc2nc(N3CCC[C@H]3C(=O)N(C)CCc3ccncc3)oc(=O)c12 [Compound No.93, (5-Methyl-2-{2S-[methyl-(2-pyridin-4-yl-ethyl)-carbamoyl]-pyrrolidin-1-yl}-4-oxo-4H-benzo[d][1,3]oxazin-6-yl)-carbamic acid tert-butyl ester] | > 20000 | 82.4 | > 12.5 |
| Cc1c(NC(=O)c2cccc(OC(F)(F)F)c2)ccc2nc(NC(C)(C)C(=O)N(C)CCc3ccccn3)oc(=O)c12 [Compound No.172, N-(5-Methyl-2-{1-methyl-1-[methyl-(2-pyridin-2-yl-ethyl)-carbamoyl]-ethylamino}-4-oxo-4H-benzo[d][1,3]oxazin-6-yl)-3-trifluoromethoxy-benzamide] | 1200 | 17.4 | 9 |
| Cc1c(NC(=O)CCC2CCCCC2)ccc2nc(NC(C)(C)C(=O)N(C)CCc3ccccn3)oc(=O)c12 [Compound No.160, 2-[6-(3-Cyclohexyl-propionylamino)-5-methyl-4-oxo-4H-benzo[d][1,3]oxazin-2-ylamino]-2,N-dimethyl-N-(2-pyridin-2-yl-ethyl)-propionamide] | 1100 | 13.0 | 11.3 |
| Cc1c(NC(=O)OC(C)(C)C)ccc2nc(N(C)[C@@H](C)C(=O)NCCc3ccccn3)oc(=O)c12 [Compound No.74, (5-Methyl-2-{methyl-[1S-(2-pyridin-2-ylethylcarbamoyl)-ethyl]-amino}-4-oxo-4H-benzo[d][1,3]oxazin-6-yl)-carbamic acid tert-butyl ester] | 1500 | 95.3 | > 12.5 |
| Cc1c(NC(=O)OC(C)(C)C)ccc2nc(N[C@@H](CC3CCCCC3)C(=O)NCc3cccnc3)oc(=O)c12 [Compound No.27, (2-{2-Cyclohexyl-1S-[(pyridin-3-ylmethyl)-carbamoyl]-ethylamino}-5-methyl-4-oxo-4H-benzo[d][1,3]oxazin-6-yl)-carbamic acid tert-butyl ester] | 8700 | 103.0 | > 25 |

Source: patent publication US20040116420A1 (priority 2001, published 2004)
